From article PMC6100603, “Exploring the Dual Inhibitory Activity of Novel Anthranilic Acid Derivatives towards α-Glucosidase and Glycogen Phosphorylase Antidiabetic Targets: Design, In Vitro Enzyme Assay, and Docking Studies” (Molecules : A Journal of Synthetic Chemistry and Natural …, 2018)
Where “and” joins values, the source holds several entries; their conditions need not be identical. Equal values may be shown once.

Tests used:
[1] = molecular target: T1, Rabbit muscle glycogen phosphorylase a (Oryctolagus cuniculus, UniProt P00489); test: Glycogen phosphorylase enzyme assay (phosphate release, malachite green); assay type: biochemical; settings: mean of three determinations
T1 construct: purchased Abcam
T1 sequence (P00489 2-843 limits assumed): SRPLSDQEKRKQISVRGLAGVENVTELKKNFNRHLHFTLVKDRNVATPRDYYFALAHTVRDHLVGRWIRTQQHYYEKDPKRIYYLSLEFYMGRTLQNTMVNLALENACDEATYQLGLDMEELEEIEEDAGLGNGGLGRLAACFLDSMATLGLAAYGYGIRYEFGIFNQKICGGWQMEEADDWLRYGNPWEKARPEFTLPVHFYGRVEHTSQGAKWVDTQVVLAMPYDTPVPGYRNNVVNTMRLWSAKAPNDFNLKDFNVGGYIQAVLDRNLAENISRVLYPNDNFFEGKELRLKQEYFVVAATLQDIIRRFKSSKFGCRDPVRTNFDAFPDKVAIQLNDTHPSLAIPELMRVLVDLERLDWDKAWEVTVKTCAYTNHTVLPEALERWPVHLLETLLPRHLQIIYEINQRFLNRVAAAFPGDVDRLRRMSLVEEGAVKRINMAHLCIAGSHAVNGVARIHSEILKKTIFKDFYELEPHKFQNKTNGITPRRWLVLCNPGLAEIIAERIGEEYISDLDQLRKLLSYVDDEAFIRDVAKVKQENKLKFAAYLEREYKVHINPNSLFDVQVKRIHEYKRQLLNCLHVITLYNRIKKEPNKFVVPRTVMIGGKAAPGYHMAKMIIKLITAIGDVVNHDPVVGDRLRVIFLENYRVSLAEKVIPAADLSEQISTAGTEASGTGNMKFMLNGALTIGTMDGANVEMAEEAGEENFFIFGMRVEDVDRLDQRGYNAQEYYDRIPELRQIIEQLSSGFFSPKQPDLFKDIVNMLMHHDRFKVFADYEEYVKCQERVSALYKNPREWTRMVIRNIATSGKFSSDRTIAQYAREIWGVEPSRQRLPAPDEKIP
Method: Rabbit muscle glycogen phosphorylase a (from Abcam, 0.475 mg/ mL) activity was measured in the direction of glycogen synthesis by the release of phosphate from glucose-1-phosphate using a 384-well plate at 22 °C in […] of buffer containing 50 mM Hepes (pH 7.2), 100 mM KCl, 2.5 mM EGTA, 2.5 Mm MgCl2, 0.25 Mm glucose-1-phosphate, and 1 mg/mL glycogen with a 30-min incubation time. Phosphate was measured at 620 nm, 5 minutes after the addition of […] of 1 MHCl containing 10 mg/mL ammonium molybdate and 0.38 mg/mL malachite green. Test compounds were added to the assay in […] of 14% DMSO. Compounds were tested against a deoxynojirimycin hydrochloride (Abcam) standard in 11 point concentration response curve in duplicate on two separate occasions. Data were analyzed using GraphPad Prism v.4.03, GraphPad Software, (La Jolla, CA, USA).
A nonlinear regression (curve fit) analysis with a sigmoidal dose response equation (variable slope) was applied to generate IC50 and hill slope values. […] Compounds were screened with maximal concentrations of […]. The assay was carefully monitored for signs of compound insolubility. The results are presented as mean values from three determinations.

[2] = system: Sprague-Dawley (SD) rats with streptozocin-induced diabetes; test: In vivo antidiabetic screening, blood glucose level in STZ-induced diabetic rats; parameters: species or system rat; settings: for Blood Glucose Level, Reading 1: 15 h fasting followed by 5-mg meal, before treatment; for Blood Glucose Level, Fasting: after fasting for 15 h, pretreatment; for Blood Glucose Level, Reading 2: second day, after oral treatment 40 mg/100 g body weight followed by 5-mg meal
Method: The compound (7b) was tested on Sprague-Dawley (SD) rats for the effect on the blood glucose level, as described in the experimental Section 3.8, and the results are reported in (Table 2) and (Figure 3). Blood glucose levels were measured after fasting for 15 h (fasting reading), followed by the administration of a 5-mg meal (reading 1). Moreover, a second day reading after treatment with normal saline, acarbose, or (7b) compound blood glucose level (reading 2) followed by a 5-mg meal, was measured. […] In addition, the blood glucose level after 15 h fasting followed by a meal of 5 mg (reading 1) was compared to the blood glucose levels under the same conditions, and following the administration of normal saline, acarbose or compound (7b). For the control non-diabetic non-treated group and the diabetic non- treated group, no significant difference between (readings 1 and 2) was shown. For the group of rats treated with acarbose or compound (7b) one hour before a meal, blood glucose levels decreased from 147 ± 2 to 136 ± 3.28 and 120 ± 0.88 mg/dL to 116 ± 0.57, respectively. […] Twenty male Sprague–Dawley (SD) rats were maintained in an air-conditioned room (25 °C) at a constant humidity (55–60%). All rats were provided with a standard rat diet containing 60% carbohydrate (w/w), 2% fat (w/w), 17.5% protein (w/w), 8% fiber (w/w), and water ad libitum. The experiments were performed in accordance with the internationally accepted standard ethical guidelines for laboratory animal use and care, as described in the European Community guidelines. The Institutional Animal Ethics Committee of Al-Azhar University approved the study protocols (approval No: 409/432, 3/2018). Diabetes was induced in 12 Sprague–Dawley (SD) male rats by a single intraperitoneal injection of 40 mg/kg streptozocin (STZ) dissolved in 0.1 M/L citrate buffer at a pH of 4.5. Three rats were injected with normal saline and vehicle only to serve as negative controls. The remaining diabetic rats (nine) were identified by an increase in blood glucose more than 200 ± 10 mg/dL after one week. Blood glucose levels were measured using One Touch Ultra 2 glucometer (Lifescan inc., Wayne, USA) every week for the following two weeks to confirm the diabetic status. Rats were 6–8 weeks of age and the average weight when starting the experiment was 200 ± 20 g. Twelve rats were randomly assigned to four groups. Group 1: non-diabetic non-treated (control). Group 2: Diabetic non-treated. Group 3: Diabetic and administrated acarbose before meals. Group 4: Diabetic and administrated our new compound before a meal. Briefly; the first group was injected with an IP vehicle only. The other three groups were injected with streptozocin (STZ) and developed diabetes. The second group was diabetic and untreated. The third group was diabetic rats treated with acarbose at 40 mg per 100 g body weight 30 min. before meal using oral tube. The fourth group administrated 40 mg/100 g body weight of the test compound (7b). Rats were fasted over 15 h and blood sugar levels were measured (pretreatment). For each rat, 5 mg standard rat diet was supplied to each rat and blood glucose levels were measured to detect increases after 1 hour. Rats were fed again with the same amount after 8 h. Food was removed to allow animals to fast again for 15 h. On the following day, groups 1 and two were not given any treatment, while group 3 rats were given acarbose (positive control) and group 4 were given the test compound (7b). Blood glucose levels were measured in tail vein blood samples taken from fasting rats (time point 0), then designated groups are fed either acarbose or the test compound, suspended in PBS and delivered using an oral tube. After half an hour, the rats were given five mg. Blood samples were taken after 1 hour. Blood glucose was expected to rise after meal and the effect of the drugs was evaluated according to their abilities to control post-meal excursions.

[3] = molecular target: α-Glucosidase from Saccharomyces cerevisiae; test: α-Glucosidase inhibition assay (spectrophotometric, p-nitrophenyl-α-D-glucopyranoside); assay type: biochemical; settings: mean ± spread, triplicate
Method: α-Glucosidase inhibition assay was performed spectrophotometrically. α-Glucosidase from Saccharomyces cerevisiae (Abcam, Cambridge, UK) was dissolved in phosphate buffer (pH 6.8, 50 mM). Test compounds were dissolved in DMSO. In 96-well microtiter plates, 20 µL of test sample, 20 µL of enzyme (20 mU/mL) and 135 µL of buffer were added and incubated for 15 minutes at 37 °C. After incubation, 25 µL of p-nitrophenyl-α-D-glucopyranoside (2 mM, Abcam) was added and change in absorbance was monitored for 20 min at 400 nm. Test compound was replaced by DMSO (10% final) as control. Deoxynojirimycin hydrochloride (Abcam) was used as a standard inhibitor. The assays were done in triplicate. IC50 values were calculated from non-linear regression curve of percentage inhibition versus log compound concentration.

Row | Structure (SMILES) | melting point | IC50 [1] | IC50 [3] | further results
1 | Cc1ccc(CNC(=O)c2ccccc2NC(=O)c2ccccn2)cc1 [Compound 3e, N-(2-((4-Methylbenzyl)carbamoyl)phenyl)picolinamide] | 275 to 278 °C | 262 ± 10 nM | – | –
2 | OC[C@H]1NC[C@H](O)[C@@H](O)[C@@H]1O [1-Deoxynojirimycin, reference compound] | – | 55.6 ± 110 nM | – | –
3 | C[C@H]1O[C@H](O[C@H]2[C@H](O)[C@@H](O)[C@@H](O[C@H]3[C@H](O)[C@@H](O)C(O)O[C@@H]3CO)O[C@@H]2CO)[C@H](O)[C@@H](O)[C@@H]1N[C@H]1C=C(CO)[C@@H](O)[C@H](O)[C@H]1O (stereo partly shown) [Acarbose, reference compound] | – | – | – | Blood Glucose Level, Reading 1 [2]: 147 ± 2.0 mg/dL; Blood Glucose Level, Reading 1 ([2]; listed as acarbose): 147 ± 2 mg/dL; Blood Glucose Level, Fasting [2]: 204 ± 4.5 mg/dL; Blood Glucose Level, Reading 2 [2]: 136 ± 3.28 mg/dL
4 | O=C(Nc1ccccc1C(=O)Nc1ccc(S(=O)(=O)Nc2nccs2)cc1)c1ccccn1 [Compound 5c, N-(2-((4-(N-(Thiazol-2-yl)sulfamoyl)phenyl)carbamoyl)phenyl)picolinamide] | 217 to 219 °C | – | 12.5 ± 10 nM | –
5 | COc1ccc(CNC(=O)c2ccccc2NC(=O)c2ccccn2)cc1 [Compound 3b, N-(2-((4-Methoxybenzyl)carbamoyl)phenyl)picolinamide] | 225 to 227 °C | – | 22.3 nM | –
6 | O=C(Nc1ccccc1C(=O)NCc1ccc(F)cc1)c1ccccn1 [Compound 3c, N-(2-((4-Fluorobenzyl)carbamoyl)phenyl)picolinamide] | – | 86.4 ± 20 nM | – | –
7 | NNC(=O)c1ccccc1NC(=O)c1ccccn1 [Compound 6, N-(2-(Hydrazinecarbonyl)phenyl)picolinamide] | 210 to 212 °C | 582 ± 580 nM | – | IC50 ([3]; listed as 7): 416 nM
8 | O=C(Nc1ccccc1C(=O)NCc1ccccc1)c1ccccn1 [Compound 3a, N-(2-(Benzylcarbamoyl)phenyl)picolinamide] | – | 150 ± 70 nM | 89.6 nM | –
9 | O=C(Nc1ccccc1C(=O)Nc1ccc(S(=O)(=O)Nc2ccccn2)cc1)c1ccccn1 [Compound 5b, N-(2-((4-(N-(Pyridin-2-yl)sulfamoyl)phenyl)carbamoyl)phenyl)picolinamide] | – | 16.6 nM | 21.2 nM | –
10 | COC(=O)c1ccccc1NC(=O)c1ccccn1 [Compound 1, Methyl 2-(picolinamido)benzoate] | 210 to 212 °C | 541 ± 60 nM | 735 nM and 736 nM | –
11 | O=C(Nc1ccccc1C(=O)NCc1ccc(Cl)cc1)c1ccccn1 [Compound 3d, N-(2-((4-Chlorobenzyl)carbamoyl)phenyl)picolinamide] | 233 to 235 °C | 177 ± 50 nM | 94.7 nM | –
12 | NS(=O)(=O)c1ccc(NC(=O)c2ccccc2NC(=O)c2ccccn2)cc1 [Compound 5a, N-(2-((4-Sulfamoylphenyl)carbamoyl)phenyl)picolinamide] | – | – | 47.7 nM | –

Second part, led by results:

Row | melting point | IC50 [1] | IC50 [3] | Structure (SMILES) | further results
13 | 212 to 214 °C | – | 78.4 ± 50 nM | O=C(Nc1ccccc1C(=O)N/N=C/c1ccc(Cl)cc1Cl)c1ccccn1 [Compound 7d, (E)-N-(2-(2-(2,4-Dichlorobenzylidene)hydrazine-1-carbonyl)phenyl)picolinamide] | –
14 | 225 to 227 °C | 86.4 nM | 231 ± 570 nM | O=C(Nc1ccccc1C(=O)N/N=C/c1ccccn1)c1ccccn1 [Compound 7c, (E)-N-(2-(2-(Pyridin-2-ylmethylene)hydrazine-1-carbonyl)phenyl)picolinamide] | –
15 | 205 to 207 °C | 208 nM | – | O=C(Nc1ccccc1C(=O)N/N=C/c1ccccc1)c1ccccn1 [Compound 7a, (E)-N-(2-(2-Benzylidenehydrazine-1-carbonyl)phenyl)picolinamide] | –
16 | 215 to 217 °C | 13.7 ± 30 nM | 17.6 nM | O=C(Nc1ccccc1C(=O)N/N=C/c1ccc(O)cc1O)c1ccccn1 [Compound 7b, (E)-N-(2-(2-(2,4-Dihydroxybenzylidene)hydrazine-1-carbonyl)phenyl)picolinamide] | Effect on blood glucose level compared with reference drug ([2]; 40 mg/100 g body weight oral before meal): succeeded in decreasing the blood glucose level of diabetic rats better than the reference oral antidiabetic drug, acarbose; Blood Glucose Level, Reading 1 [2]: 120 ± 0.88 mg/dL; Blood Glucose Level, Fasting [2]: 207 ± 0.88 mg/dL; Blood Glucose Level, Reading 2 [2]: 116 ± 0.57 mg/dL
